The test system of one assay is CobB. The experiment in a line: LC-MS detection of deacylation of gpmA peptides by CobB. It counts as biochemical, P. mirabilis.
For another assay, the system named is recombinant ENO. It is filed as biochemical, P. mirabilis. Conditions: NAM 10 mM with CobB and NAD^+, 25°C, 10 hours, Western blotting.
The test system of another assay is P. mirabilis. The experiment in a line: Growth curve of overexpressing P. mirabilis. It counts as cell-based. Conditions: ENO WT or mutant-overexpressing P. mirabilis, OD600, 37°C.
A further assay relates to R58M CobB. The experiment in a line: ITC affinity of Khib peptide with R58M CobB. The following applies: 37°C. It is filed as binding, P. mirabilis.
The test system of another assay is WT CobB. The experiment in a line: De-2-hydroxyisobutyrylation kinetics by MALDI-TOF MS, WT CobB. It counts as biochemical, P. mirabilis.
The subject of another assay is Y55F CobB. The experiment in a line: De-2-hydroxyisobutyrylation kinetics by MALDI-TOF MS, Y55F CobB. It is filed as biochemical, P. mirabilis.
In a further assay the test system is R58M mutant CobB. The experiment in a line: LC-MS detection of deacylation of gpmA peptides by R58M mutant CobB. It is filed as biochemical, P. mirabilis. Conditions: 50 μM peptide, 1 μM CobB, 1 mM NAD^+, pH 8.5, 37°C, 2 hours.
A further assay concerns the target R58M CobB (P. mirabilis). The experiment in a line: ITC. In general terms: ITC needs no label: the signal is the heat of the interaction.
The target of a further assay is Y55F CobB (P. mirabilis). The experiment in a line: ITC.
The target of assay [1] is recombinant CobB (WT) (P. mirabilis). The experiment in a line: ITC.
Where [2] appears, read: Km for peptide, MALDI-TOF MS, 1 mM NAD^+, pH 8.5, 37°C, 2 min.
Setting [3] is: MALDI-TOF MS, 1 mM NAD^+, pH 8.5, 37°C, 2 min, 2-285 μM peptide.

Ends that are not written are not given here. * marks the point of attachment. Isobutyryl(2-OH) = CC(C)(O)C(=O)*

Turning to `NC(=O)c1cccnc1` [NAM, nicotinamide], in the assay on CobB (NAM 10 mM), the “inhibitory effect on removal of Khib relative to other acyl groups” value is “greatest inhibitory effect on Khib” and the “inhibitory effect on removal of Ksucc relative to other acyl groups” value is recorded as “least effect on Ksucc”. Further, the “inhibition of de-2-hydroxyisobutyrylation reaction” value in the assay on CobB (NAM 10 mM, 50 μM peptide, 1 μM CobB) was “inhibited efficiently”. Moreover, the “change of modifications of ENO with NAD^+ and NAM” value in the assay with recombinant ENO was “no significant change in the modifications of ENO”.

Regarding ENO-K326Q/K343T, the growth rate result in the assay with P. mirabilis is “the lowest”.

With YGDEQVK(hib)QWR, the “change of affinity of R58M CobB compared with WT CobB” value in the assay with R58M CobB is “significantly decreased eight times”. The figures for the kcat/Km in the assay on WT CobB and in the assay with Y55F CobB were 17000 s⁻¹ µM⁻¹ and 8300 s⁻¹ µM⁻¹, respectively. For the same molecule, the results for the Michaelis constant (Km) in the assay with WT CobB (setting [2]) and in the assay with Y55F CobB (setting [2]) were 13.3 ± 1.6 µM and 12.2 ± 2 µM, respectively. Also, the kcat (in general, the maximal rate divided by the concentration of active sites) in the assay with WT CobB (setting [3]) is 0.225 ± 0.011 s⁻¹; with Y55F CobB (setting [3]), 0.101 ± 0.006 s⁻¹. For the same molecule, the “hydrolysis by CobB in the presence of NAD^+” value in the assay with CobB (50 μM peptide, 1 μM CobB, 1 mM NAD^+, pH 8.5, 37°C, 2 hours) was “efficiently catalyzed the hydrolysis”. Also, in the assay with CobB (50 μM peptide, 1 μM CobB, without NAD^+), the “de-2-hydroxyisobutyrylated peptide without NAD^+” value was “not detected”. For the same molecule, the “deacylated peptide after treatment with R58M mutant” value in the assay with R58M mutant CobB is “not detectable”.

“ENO: enolase of P. mirabilis, His-tagged fusion protein”: in the assay with P. mirabilis, the growth rate result is on record as “faster than that of mutated ENO-overexpressing P. mirabilis”.

For YGDEQVK(Isobutyryl(2-OH))QWR [2-hydroxyisobutyrylated peptide [YGDEQVK(hib)QWR]], the dissociation constant Kd – broadly, a measure of binding affinity in units of concentration – was 15.9 µM in the assay with R58M CobB (P. mirabilis), 2340 nM with Y55F CobB (P. mirabilis) and 2030 nM in assay [1].

Values taken from publication PMC6636992 (Science Advances, 2019).
